Source: US20240309117A1, “APTAMER-PEPTIDE CONJUGATES” (CITY UNIVERSITY OF HONG KONG, priority 2023, published 2024)
[L-RNA-N] = L-ribonucleotide (mirror-image RNA) unit (N: the base)

Tests used:
hTERC rG4 WT [1] = experiment: Dual-luciferase reporter gene assay, hTERC rG4 WT, HeLa cells; format: cell-based, human; conditions: 200 nM, 48 hours
Experimental: (§1) The DNA sequences encoding hTERC rG4 WT, hTERC rG4 Mut, NRAS rG4 WT, NRAS rG4 Mut, APP rG4 WT, and APP rG4 Mut (Table 1) were respectively introduced into the 5′UTR of the renilla luciferase gene in the psiCHECK-2 vector. 2×10^4 HeLa cells were seeded on 96-well black-wall plates. In sequential addition assay, 10 ng WT and Mut plasmids were transfected to cells by LIPOFECTAMINE® 2000 separately. Subsequently, Tamra_Ahx_R8, Tamra_Ahx_R8_L-Apt.4-1c, and L-Apt.4-1c (0, 100 nM, 200 nM) were separately added to cells after being washed with phosphate buffered saline (PBS) at 4 hours post-transfection and incubated for 48 hours. In co-transfection assay, 10 ng WT or Mut plasmid was co-transfected with Tamra_Ahx_R8, Tamra_Ahx_R8_L-Apt.4-1c, and L-Apt.4-1c (0, 100 nM, 200 nM) separately to cells by LIPOFECTAMINE® 2000 and incubated for 48 hours. Luciferase activity was determined by microplate reader. The renilla activity was normalized to firefly activity for data analysis.

hTERC rG4 WT [2] = experiment: Dual-luciferase reporter assay, hTERC rG4 WT, HEK 293T cells; format: cell-based, human
Experimental: as §1

L-Apt.4-1c: the L-RNA aptamer of SEQ ID NO: 1 (GCCCUAAAGGUGGUGGUGGGAGGGC), non-conjugated control (all [L-RNA-N], backbone not given here)
Effect on normalized luciferase activity, hTERC rG4 WT construct (hTERC rG4 WT [1]; co-transfection with plasmid by LIPOFECTAMINE 2000, 0, 100 nM): only functioned well in co-transfection method
Effect on normalized luciferase activity, hTERC rG4 WT construct (hTERC rG4 WT [1]; sequential addition, absence of transfection reagent, 0, 100 nM): neither Tamra_Ahx_R8 peptide nor L-Apt.4-1c modulated luciferase activity
Effect on normalized luciferase activity, hTERC rG4 WT construct (hTERC rG4 WT [2]): cannot regulate luciferase activity
